In patent publication US9814696B2, “Use of coumarin derivatives for the preparation of drugs for treating skin diseases” (UNIVERSITE PIERRE ET MARIE CURIE (PARIS 6), priority 2011, dated 2017):
Where two headings read alike, the source gives them in different places.

Assays:
KLK7 = KLK7 (Homo sapiens, UniProt P49862); test: KLK7 enzyme inhibition assay, fluorogenic substrate Suc-Leu-Leu-Val-Tyr-AMC; format: biochemical; details: for selective activity against enzyme: KLK7: Table B, among KLK5, KLK7 and KLK14
Description: (§1) Kallikreins KLK5, KLK7 and KLK14 activities were determined by monitoring the hydrolysis of the appropriate fluorogenic substrate (λexc=355, λem=460 nm) for 15 min at 37° C. in the presence of the untreated kallikrein (control) or kallikrein that had been incubated with a test compound. Substrate and compounds were previously dissolved in DMSO, with the final solvent concentration kept constant at 2% (v/v) (KLK 5 and 14), and 4% (v/v) (KLK7). The composition of the activity buffers (pH 8.0) was 100 mM Tris-HCl, 150 mM NaCl, 0.01% (v/v) Tween 20 for the KLK5 assay, and 100 mM Tris-HCl, 1M NaCl, 0.01% (v/v) Tween 20 in the KLK 7 and 14 assays. The final concentrations were 0.6 nM (KLK5) and 100 μM (Boc-Val-Pro-Arg-AMC) (KLK5 assay), 8 nM (KLK7) and 40 μM (Suc-Leu-Leu-Val-Tyr-AMC, AMC: 7-amino-4-methyl-coumarin) (KLK7 assay), and 0.17 nM (KLK14) and 10 μM (Boc-Val-Pro-Arg-AMC) (KLK14 assay). Using the appropriate substrate, the coumarinic compounds (0.01-100 μM) were tested in duplicate for each inhibitor concentration to detect their inhibitory potential. The enzyme and the inhibitors were incubated for 15 min before the determination of the enzyme activity. Initial rates determined in control experiments (V0) were considered to be 100% of the peptidase activity; initial rates below 100% were considered to be inhibitions. The inhibitory activity of compounds was expressed as IC50 (inhibitor concentrations giving 50% inhibition). The values of IC50 were calculated by fitting the experimental data to the equation: % Inhibition=100×(1−Vi/V0)=100[I]0/(IC50+[I]0), or equation: % Inhibition=100[I]0^nH/(IC50^nH+[I]0^nH),nH is the Hill number.
(§2) The tests were realized at 37° C. after 15 min of incubation at pH 8.

KLK5 = target: T1, KLK5 (Homo sapiens, UniProt Q9Y337); test: KLK5 enzyme inhibition assay, fluorogenic substrate Boc-Val-Pro-Arg-AMC; format: biochemical; details: for IC50: 37° C., 15 min of incubation, pH 8
T1 sequence (Q9Y337 23-293): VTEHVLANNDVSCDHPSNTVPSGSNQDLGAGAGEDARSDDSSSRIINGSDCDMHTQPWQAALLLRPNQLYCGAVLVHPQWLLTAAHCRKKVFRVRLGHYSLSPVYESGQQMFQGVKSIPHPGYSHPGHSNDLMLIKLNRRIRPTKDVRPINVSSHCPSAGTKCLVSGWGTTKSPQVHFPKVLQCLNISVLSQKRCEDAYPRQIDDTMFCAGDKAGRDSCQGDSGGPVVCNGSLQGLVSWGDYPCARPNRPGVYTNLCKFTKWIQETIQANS
Description: as §1, §2

KLK14 = target: T2, KLK14 (Homo sapiens, UniProt Q9P0G3); test: KLK14 enzyme inhibition assay, fluorogenic substrate Boc-Val-Pro-Arg-AMC; format: biochemical; details: 37° C., 15 min of incubation, pH 8
T2 sequence (Q9P0G3 25-251): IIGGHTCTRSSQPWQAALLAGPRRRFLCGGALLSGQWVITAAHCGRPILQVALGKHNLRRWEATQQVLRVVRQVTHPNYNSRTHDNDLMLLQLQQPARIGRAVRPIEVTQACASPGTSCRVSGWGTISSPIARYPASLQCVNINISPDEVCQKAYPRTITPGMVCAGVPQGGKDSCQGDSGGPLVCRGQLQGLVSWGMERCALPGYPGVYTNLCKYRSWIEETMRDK
Description: as §1, §2

[1] = system: keratinocytes from a Netherton syndrome patient (NSK); test: Expression of pro-allergic and inflammatory molecules (indirect KLK5 activity) in Netherton syndrome patient keratinocytes; format: cell-based, human; details: 1 μM, 72 h, relative to HPRT
Description: 250,000 keratinocytes from a Netherton syndrome patient (NSK) were seeded in 6 well plates in 2 mL of medium made of: (a) half of complete Green medium: (Dulbecco's Modified Eagle Media) 60%; Ham's F12 30%; FCS 10%; adenin […]; insulin 5 μg/mL; hydrocortisone 0.4 μg/mL; cholera toxin 10 nM; triiodothyronin 2 nM; human recombinant EGF 10 ng/mL; penicillin G/streptomycin 100 U/mL; (b) half of a basal medium (Epilife—Cascade Biologics).
When confluent, cells were washed 5 times with PBS and 2 mL of complete Green medium without FCS (fetal calf serum) were added per well.
Inhibitors were added in the culture medium 24 h after medium renewal.
350 μL of RLT lysis buffer (Mini Kit QIAGEN)+β-mercapto-ethanol (0.1%) were added per well to extract total RNA. The cell lysate was kept at −80° C. before RNA extraction (Mini Kit QIAGEN).
In this in cellulo test, KLK5 activity was evaluated by an indirect method. Indeed KLK5 induces TSLP (thymic stromal lymphopoietin), TNFα (tumor necrosis factor alpha) and IL-8 (interleukin 8) expression. If KLK5 activity is inhibited, the expression of these cytokines will be reduced.
The relative amount of TSLP, TNFα and IL-8 transcripts [relative to HPRT (hypoxanthine phosphoribosyltransferase 1) housekeeping gene] was compared between cells treated or not treated with the inhibitors. The ratio <<treated/not treated>> relative to housekeeping gene reflects KLK5 inhibition.
Their expression had also been studied even if their mechanism of induction is not known yet.
The effect of LP73 and CFL33 on the expression of the described pro-allergic and inflammatory cytokines was analyzed on keratinocytes from two different NS patients. Each experiment was performed twice (FIG. 4).

[2] = system: normal human keratinocytes; test: Neutral red uptake (NRU) cytotoxicity test / cell viability; format: cell-based; parameters: cytotoxicity, neutral red uptake test (FIG. 5): dose or concentration left out as unconfirmed; details: 48 h, human normal keratinocytes
Text: The NRU cytotoxicity assay procedure is a cell survival/viability chemosensitivity assay based on the ability of viable cells to incorporate and bind neutral red (NR), a supravital dye. NR is a weak cationic dye that readily penetrates cell membranes by non-ionic diffusion and accumulates intracellularly in lysosomes. Alterations of the cell surface or the sensitive lysosomal membrane lead to lysosomal fragility and other changes that gradually become irreversible. Such changes caused by the action of xenobiotics result in a decreased uptake and binding of NR. It is thus possible to distinguish between viable, damaged, or dead cells, which is the basis of this assay. After treatment with the small-molecules inhibitors, NR uptake in cells will be measured by spectrophotometry at 540±10 nm.
Keratinocytes from healthy persons or patients with Netherton syndrome are seeded at the density of 4000 cells in 125 μL of medium per well in 96-well plates.
After seeding, cells are incubated for 48 hours in the following experimental conditions: 37° C.±1° C., 90%±5.0% humidity, and 5%±1% CO2/air. This incubation period allows for cell recovery and adherence and progression to exponential growth phase.
Prepare inhibitors solutions 2-fold more concentrated than desired. Add 125 μL of these solutions to the wells without changing or removing the medium (125 μL).
48 h hours after the beginning of the treatment, carefully remove the medium (containing the tested inhibitor) and rinse the cells very carefully with 250 μL pre-warmed PBS.
Add 250 μL NR medium and incubate (37° C.±1° C., 90%±5% humidity, and 5.0%±1% CO2/air) for 3±0.1 h. NR medium is the culture medium containing 33 μg/mL of NR. After incubation, remove the NR medium, and carefully rinse cells with 250 μL pre-warmed PBS.
Measure the absorption (within 60 minutes after adding NR Desorb solution) of the resulting colored solution at 540 nm±10 nm in a microtiter plate reader (spectrophotometer), using the blank as a reference.
A calculation of cell viability expressed as NRU is made for each concentration of the tested inhibitor by using the mean NRU of the three replicate values per each concentration. This value is compared with the mean NRU of all vehicle values. Relative cell viability is then expressed as percent of untreated vehicle control (DMSO).
Normal human keratinocytes were seeded in a 96-well tissue culture plate. At 20% of confluence, molecules were added in the culture medium and incubated for 48 h. Neutral red medium was added to every well for an incubation period of 3 h, then the dye was extracted with acidified ethanol solution. Data (FIGS. 2 and 3) represent the mean cell viability after treatment +/−SD compared to mean viability of cells treated with the vehicle only (DMSO). Data represent the mean of 5 individual experiments.

[3] = system: total protease activity of transgenic KLK5 mice skin section; test: In situ zymography on transgenic KLK5 mice skin section; format: biochemical; details: 5 μM
Description: FIG. 6 illustrates the effect of JFR9 compound (5 μM) efficacy on the total protease activity of transgenic KLK5 mice skin section, by in situ zymography.
The protease activity is shown with a gradient of fluorescence. The fluorescence intensity represents the cleavage efficiency of a casein substrate coupled to a FITC group.
JFR9 efficacy has been assayed on transgenic KLK5 mice skin section by in situ zymography (FIG. 6). These mice overexpress KLK5 and reproduce the phenotypic characteristics of Netherton syndrome.

[4] = 37° C., 15 min of incubation, pH 8

KLK7, sequence (P49862 30-253): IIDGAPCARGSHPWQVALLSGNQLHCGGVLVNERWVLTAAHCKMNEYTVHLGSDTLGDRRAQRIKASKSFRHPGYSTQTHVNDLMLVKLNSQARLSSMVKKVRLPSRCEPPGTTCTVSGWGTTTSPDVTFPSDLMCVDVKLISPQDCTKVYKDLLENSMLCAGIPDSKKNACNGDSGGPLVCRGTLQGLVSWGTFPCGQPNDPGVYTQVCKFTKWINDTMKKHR

With `O=C(Oc1cccc2ccccc12)c1cc2ccccc2oc1=O` [JFR1, 1-Naphthyl 2-oxo-2H-1-benzopyran-3-carboxylate] the melting point was 159 to 160 °C, the inhibition at 50 µM (KLK7; [4]) was 53% and the “selective activity against enzyme: KLK7” value (KLK7) was “KLK7”.
With `O=C(Oc1nccc2ccccc12)c1cc2ccccc2oc1=O` [CFL33, Isoquinolin-1-yl 2-oxo-2H-1-benzopyran-3-carboxylate] the IC50 (KLK5; Table A, read-out: IC50 (μM) KLK5) was 7 ± 0.4 µM, the “selective activity against enzyme: KLK5” value (KLK5; Table B, among KLK5, KLK7 and KLK14) was “KLK5” and the inhibition at 100 µM (KLK14; 100 μM) was 61%. The “expression of IL-8” value [1] was “significantly inhibited”, the “expression of MDC” value [1] was “significantly inhibited” and the “expression of TARC” value [1] was “significantly inhibited”. The “cytotoxicity, neutral red uptake test” value ([2]; 1 and 10 μM) was “No noticeable cytotoxicity”.
In the case of `O=C(Oc1cccc(Cl)c1)c1cc2cc(CBr)ccc2oc1=O` [JFR9, 3-Chlorophenyl 6-bromomethyl-2-oxo-2H-1-benzopyran-3-carboxylate], the “total protease activity of skin section (casein-FITC cleavage)” value [3] is reported as “decreased significantly”, the IC50 (KLK5; Table A2, read-out: IC50 (nM) KLK5) is reported as 0.92 ± 0.07 µM and the IC50 (KLK7; Table A2, 37° C., 15 min of incubation, pH 8, read-out: IC50 (nM) KLK7) is reported as 63.7 ± 1.7 nM. For the same compound, the “selective activity against enzyme: KLK7” value (KLK7) was “KLK7”, the IC50 (KLK14; Table A2, read-out: IC50 (nM) KLK14) was 2900 ± 100 nM and the “cytotoxicity, neutral red uptake test (FIG. 5)” value [2] was “No noticeable cytotoxicity”.
For `O=C(Oc1ccc(Cl)cc1)c1cc2cc(CF)ccc2oc1=O` [JFR7, 4-Chlorophenyl 6-fluoromethyl-2-oxo-2H-1-benzopyran-3-carboxylate], the melting point was 216 to 218 °C, the inhibition at 50 µM (KLK7; [4]) was 30% and the “selective activity against enzyme: KLK7” value (KLK7) was “KLK7”.
For `O=C(Oc1ccc2ccccc2c1)c1cc2ccccc2oc1=O` [JFR2, 2-Naphthyl 2-oxo-2H-1-benzopyran-3-carboxylate], the melting point was 166 to 167 °C, the inhibition at 50 µM (KLK7; [4]) was 30% and the “selective activity against enzyme: KLK7” value (KLK7) was “KLK7”.
